# Experiments:
# PI-3 kinases = settings: Vlahos et al. J. Biol. Chem. 1994; cited from earlier work
# [1] = test system: 786-0 renal cell carcinoma xenograft; assay: 786-0 renal cell carcinoma xenograft mouse model; assay type: in vivo, nude mice; settings: 25 mg/kg, ip, 3×/wk for 4 weeks
# Description: To determine if Cpd 9 has anti-tumor effects, an in vivo study was conducted in a 786-0 renal cell carcinoma xenograft model, 786-0 cells (2×10^6) were inoculated subcutaneously into nude mice in the flank area and tumor growth was monitored with calipers via external measurements. Tumor volume was calculated using the formula volume=(length×width^2)/2. When the average tumor volume reached 400 mm^3, mice were randomly divided into 2 groups and treated with either DMSO (control) or Cpd 9 (25 mg/kg, ip) three times weekly (M, W, F) for two weeks.
# To determine if Cpd 28 has anti-tumor effects, an in vivo study was conducted in a 786-0 renal cell carcinoma xenograft model, 786-0 cells (2×10^6) were inoculated subcutaneously into nude mice in the flank area and tumor growth was monitored with calipers via external measurements. Tumor volume was calculated using the formula volume=(length×width^2)/2. Treatment was started when tumors reached an average volume of 300 mm^3. […] DMSO was used as control since this was the vehicle the compounds were dissolved in. Tumor size was monitored twice weekly and body weight was monitored once weekly. Means and standard deviations were calculated and the Student t test method was used for statistical comparisons.
# [2] = test system: pAKT serine 473 level in PC3 cells; assay: pAKT status in IGF-1 stimulated PC3 cells (Ser473 pAKT ELISA); assay type: cell-based; settings: Homo sapiens, PC-3; PC3 cells; read-out: IC50 pAKT (Pathway Inhibition)
# Description: PC3 cells were obtained from the American Type Culture Collection (ATCC, Manassas, Va., Cat.# CRL-1435). Two million cells from the prostate cancer line PC3 were placed into 6 cm culture dishes and allowed to grow in complete RPMI 1640 media (Invitrogen, Carlsbad, Calif., Cat.#22400-105) with 10% fetal bovine serum (Invitrogen, Carlsbad, Calif., Cat.#10438-026). After this time period the cells were serum starved for 5 hours followed by application of the test compound. Test compound was added as a DMSO (dimethyl sulfoxide) solution such that the final DMSO concentration in the cell media was less than or equal to 0.2% by volume After 30 minutes of exposure the growth factor stimulant, human IGF-1 (PeproTech, Inc., Rocky Hill, N.J., Cat.#100-11), was added to a final concentration of 0.1 μg/ml in each well. After 30 minutes of IGF-1 exposure, cells were removed from the media and cell lysates were prepared using RIPA Lysis buffer (Upstate, Lake Placid, N.Y., Cat.#20-188), keeping on ice. The pAKT serine 473 level was measured in duplicate samples of the cell lysates using commercially available assays such as the Pathscan® Sandwich ELISA kit for Ser473 pAKT (Cell Signaling, Danvers, Mass., Cat.#7160). A SpectraMax Plus spectrophotometric plate reader (Molecular Devices, Sunnydale, Calif.) was used to measure the optical density signal for pAKT at 450 nm (OD450 nm). The pAKT OD450 nm readings were normalized by total protein amount in the cell lysates determined by standard methods.
# Concentrations of test compounds required to inhibit IGF stimulated pAKT levels to 50% of maximum levels in PC3 cells (termed DM50 for decreased maximum 50%) were calculated by inputting the dose responses in the software package GraphPad Prism4 (GraphPad Software, Inc., San Diego, Calif.).
# By these methods a number of compounds of the invention were evaluated and the concentration needed to reduce the detectable pAKT to 50% of the maximal uninhibited signal was calculated. These values (in μMolar units) are listed in Table 8 under the column heading PC3 pAKT IC50 (μMolar).
# PC3 cells = assay: PC3 prostate cancer cell proliferation (WST); assay type: cell-based; settings: Homo sapiens, PC-3; PC3 cells; read-out: PC3 IC50 Proliferation
# Description: PC3 cells were obtained from the American Type Culture Collection (ATCC, Manassas, Va., Cat.# CRL-1435) Two thousand cells from the prostate cancer line PC3 were placed in 50 μL of complete RPMI 1640 media (Invitrogen, Carlsbad, Calif., Cat.#22400-105) with 10% fetal bovine serum (Invitrogen, Carlsbad, Calif., Cat.#10438-026) into each well of 96 well cell culture plates in a hexaplicate sampling pattern. A 50 μL aliquot of test compound (prepared from stock test compounds in DMSO diluted into media) was added to the appropriate well such that the final concentrations of test compound were 200, 40, 8, 1.6, 0.32, 0.064, 0.0128, 0.00256, and 0 μM and the final DMSO concentration was less than or equal to 0.2%.
# The plates were incubated for 72 hours 37° C. in an atmosphere of 5% CO2. At the end of this time a 10 μL aliquot of WST solution (Roche Applied Science, Mannheim, Germany) was added into each of the wells. Cells were exposed to the WST solution for 4 hours. A SpectraMax Plus spectrophotometric plate reader (Molecular Devices, Sunnydale, Calif.) was then used to measure the optical density at 450 nm (OD450 nm). Sigmoidal curves were drawn for the dose responses and IC50 values were calculated using the software package GraphPad Prism4 (GraphPad Software, Inc., San Diego, Calif.).
# mTOR = mTOR (Homo sapiens, UniProt P42345); assay: mTOR inhibition; assay type: biochemical
compound,measurement,setting,value
"O=c1cc(N2CCOCC2)oc2c(-c3ccccc3)cccc12 [LY294002, 2-morpholino-8-phenyl-4H-chromen-4-one, reference compound]",IC50,PI-3 kinases,1400 nM
same,tumor growth inhibition compared to control,[1],54%
same,IC50,[2],1300 nM
same,IC50,PC3 cells,7500 to 12100 nM
same,IC50,mTOR,1060 nM
